Patent publication US11021457B2, “Class of isoindolone-imide ring-1,3-dione-2-ene compounds, composition and use thereof” (WIGEN BIOMEDICINE TECHNOLOGY (SHANGHAI) CO., LTD., priority 2017, dated 2021)

Key:
[1] = test system: SU-DHL6; experiment: Inhibition of tumor cell proliferation, CellTiter-Glo, SU-DHL6; type: cell-based; details: compound concentration 50 μM, 72 hours
Outline: (§1)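 Luminescent ATP read-out (CellTiter-Glo) after 72 hours gave survival relative to untreated wells, corrected for blank. Activity categories were assigned from survival at 50 μM: ≤30% high, >30-60% moderate, 60-<90% low.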

[2] = test system: RPMI-8226; experiment: Inhibition of tumor cell proliferation, CellTiter-Glo, RPMI-8226; type: cell-based; details: compound concentration 50 μM, 72 hours
Outline: as §1

[3] = test system: K562; experiment: Inhibition of tumor cell proliferation, CellTiter-Glo, K562; type: cell-based; details: compound concentration 50 μM, 72 hours
Outline: as §1

[4] = test system: A549; experiment: Inhibition of tumor cell proliferation, CellTiter-Glo, A549; type: cell-based; details: compound concentration 50 μM, 72 hours
Outline: as §1

[5] = test system: MDA-MB-453; experiment: Inhibition of tumor cell proliferation, CellTiter-Glo, MDA-MB-453; type: cell-based; details: compound concentration 50 μM, 72 hours
Outline: as §1

[6] = test system: BxPC-3; experiment: Inhibition of tumor cell proliferation, CellTiter-Glo, BxPC-3; type: cell-based; details: compound concentration 50 μM, 72 hours
Outline: as §1

[7] = molecular target: LC3B (Homo sapiens (Human), UniProt Q9GZQ8); experiment: Fluorescence polarization experiment targeting LC3B (GST-LC3B with FITC-labeled peptide); details: GST-LC3B 180 nM, FITC-labeled peptide 18 nM, 25° C.

O=C1CCC(N2Cc3c(NC=C4C(=O)CC(c5cccc6[nH]ccc56)CC4=O)cccc3C2=O)C(=O)N1 (stereo not shown) [Compound 3]
Inhibitory activity against proliferation (cell survival rate) SU-DHL6 [1]: +++ (survival rate (%)≤30) | Inhibitory activity against proliferation (cell survival rate) RPMI-8226 [2]: + (60≤survival rate (%)<90) | Inhibitory activity against proliferation (cell survival rate) K562 [3]: + (60≤survival rate (%)<90) | Inhibitory activity against proliferation (cell survival rate) A549 [4]: + (60≤survival rate (%)<90) | Inhibitory activity against proliferation (cell survival rate) MDA-MB-453 [5]: ++ (30<survival rate (%)≤60) | Inhibitory activity against proliferation (cell survival rate) BxPC-3 [6]: + (60≤survival rate (%)<90) | IC50 [7]: < 3000 nM

O=C1CCC(N2C(=O)c3cccc(NC=C4C(=O)CC(c5cccc6[nH]ccc56)CC4=O)c3C2=O)C(=O)N1 (stereo not shown) [Compound 5]
Inhibitory activity against proliferation (cell survival rate) SU-DHL6 [1]: + (60≤survival rate (%)<90) | Inhibitory activity against proliferation (cell survival rate) RPMI-8226 [2]: + (60≤survival rate (%)<90) | Inhibitory activity against proliferation (cell survival rate) K562 [3]: + (60≤survival rate (%)<90) | Inhibitory activity against proliferation (cell survival rate) A549 [4]: +++ (survival rate (%)≤30) | Inhibitory activity against proliferation (cell survival rate) MDA-MB-453 [5]: +++ (survival rate (%)≤30) | Inhibitory activity against proliferation (cell survival rate) BxPC-3 [6]: + (60≤survival rate (%)<90) | IC50 [7]: < 3000 nM

O=C1CCC(N2C(=O)c3cccc(NC=C4C(=O)CC(c5cccc(Cl)c5Cl)CC4=O)c3C2=O)C(=O)N1 (stereo not shown) [Compound 6]
Inhibitory activity against proliferation (cell survival rate) SU-DHL6 [1]: + (60≤survival rate (%)<90) | Inhibitory activity against proliferation (cell survival rate) RPMI-8226 [2]: + (60≤survival rate (%)<90) | Inhibitory activity against proliferation (cell survival rate) K562 [3]: + (60≤survival rate (%)<90) | Inhibitory activity against proliferation (cell survival rate) A549 [4]: + (60≤survival rate (%)<90) | Inhibitory activity against proliferation (cell survival rate) MDA-MB-453 [5]: + (60≤survival rate (%)<90) | Inhibitory activity against proliferation (cell survival rate) BxPC-3 [6]: + (60≤survival rate (%)<90) | IC50 [7]: < 3000 nM

O=C1CCC(N2Cc3c(NC=C4C(=O)CC(c5cccc(Cl)c5Cl)CC4=O)cccc3C2=O)C(=O)N1 (stereo not shown) [Compound 7]
Inhibitory activity against proliferation (cell survival rate) SU-DHL6 [1]: +++ (survival rate (%)≤30) | Inhibitory activity against proliferation (cell survival rate) RPMI-8226 [2]: ++ (30<survival rate (%)≤60) | Inhibitory activity against proliferation (cell survival rate) K562 [3]: ++ (30<survival rate (%)≤60) | Inhibitory activity against proliferation (cell survival rate) A549 [4]: ++ (30<survival rate (%)≤60) | Inhibitory activity against proliferation (cell survival rate) MDA-MB-453 [5]: ++ (30<survival rate (%)≤60) | Inhibitory activity against proliferation (cell survival rate) BxPC-3 [6]: + (60≤survival rate (%)<90) | IC50 [7]: < 3000 nM

O=C1CCC(N2Cc3c(NC=C4C(=O)CC(c5c(Br)ccc(F)c5Cl)CC4=O)cccc3C2=O)C(=O)N1 (stereo not shown) [Compound 11]
Inhibitory activity against proliferation (cell survival rate) SU-DHL6 [1]: + (60≤survival rate (%)<90) | Inhibitory activity against proliferation (cell survival rate) RPMI-8226 [2]: + (60≤survival rate (%)<90) | Inhibitory activity against proliferation (cell survival rate) K562 [3]: +++ (survival rate (%)≤30) | Inhibitory activity against proliferation (cell survival rate) A549 [4]: + (60≤survival rate (%)<90) | Inhibitory activity against proliferation (cell survival rate) MDA-MB-453 [5]: + (60≤survival rate (%)<90) | Inhibitory activity against proliferation (cell survival rate) BxPC-3 [6]: + (60≤survival rate (%)<90) | IC50 [7]: < 3000 nM

O=C1CCC(N2C(=O)c3cccc(NC=C4C(=O)CC(c5cccc6[nH]cc(Cl)c56)CC4=O)c3C2=O)C(=O)N1 (stereo not shown) [Compound 12]
Inhibitory activity against proliferation (cell survival rate) SU-DHL6 [1]: + (60≤survival rate (%)<90) | Inhibitory activity against proliferation (cell survival rate) RPMI-8226 [2]: + (60≤survival rate (%)<90) | Inhibitory activity against proliferation (cell survival rate) K562 [3]: + (60≤survival rate (%)<90) | Inhibitory activity against proliferation (cell survival rate) A549 [4]: + (60≤survival rate (%)<90) | Inhibitory activity against proliferation (cell survival rate) MDA-MB-453 [5]: + (60≤survival rate (%)<90) | Inhibitory activity against proliferation (cell survival rate) BxPC-3 [6]: + (60≤survival rate (%)<90) | IC50 [7]: < 3000 nM

O=C1CCC(N2C(=O)c3cccc(NC=C4C(=O)CC(c5c(Br)ccc6[nH]cc(Cl)c56)CC4=O)c3C2=O)C(=O)N1 (stereo not shown) [Compound 13]
Inhibitory activity against proliferation (cell survival rate) SU-DHL6 [1]: ++ (30<survival rate (%)≤60) | Inhibitory activity against proliferation (cell survival rate) RPMI-8226 [2]: + (60≤survival rate (%)<90) | Inhibitory activity against proliferation (cell survival rate) K562 [3]: + (60≤survival rate (%)<90) | Inhibitory activity against proliferation (cell survival rate) A549 [4]: +++ (survival rate (%)≤30) | Inhibitory activity against proliferation (cell survival rate) MDA-MB-453 [5]: +++ (survival rate (%)≤30) | Inhibitory activity against proliferation (cell survival rate) BxPC-3 [6]: ++ (30<survival rate (%)≤60) | IC50 [7]: < 3000 nM

O=C1CCC(N2Cc3c(NC=C4C(=O)CC(c5c(Br)ccc6[nH]cc(Cl)c56)CC4=O)cccc3C2=O)C(=O)N1 (stereo not shown) [Compound 14]
Inhibitory activity against proliferation (cell survival rate) SU-DHL6 [1]: ++ (30<survival rate (%)≤60) | Inhibitory activity against proliferation (cell survival rate) RPMI-8226 [2]: + (60≤survival rate (%)<90) | Inhibitory activity against proliferation (cell survival rate) K562 [3]: + (60≤survival rate (%)<90) | Inhibitory activity against proliferation (cell survival rate) A549 [4]: +++ (survival rate (%)≤30) | Inhibitory activity against proliferation (cell survival rate) MDA-MB-453 [5]: +++ (survival rate (%)≤30) | Inhibitory activity against proliferation (cell survival rate) BxPC-3 [6]: + (60≤survival rate (%)<90) | IC50 [7]: < 3000 nM

O=C1CCC(N2Cc3c(NC=C4C(=O)CC(c5cccc6[nH]cc(C(F)(F)F)c56)CC4=O)cccc3C2=O)C(=O)N1 (stereo not shown) [Compound 15]
Inhibitory activity against proliferation (cell survival rate) SU-DHL6 [1]: ++ (30<survival rate (%)≤60) | Inhibitory activity against proliferation (cell survival rate) RPMI-8226 [2]: +++ (survival rate (%)≤30) | Inhibitory activity against proliferation (cell survival rate) K562 [3]: + (60≤survival rate (%)<90) | Inhibitory activity against proliferation (cell survival rate) A549 [4]: + (60≤survival rate (%)<90) | Inhibitory activity against proliferation (cell survival rate) MDA-MB-453 [5]: + (60≤survival rate (%)<90) | Inhibitory activity against proliferation (cell survival rate) BxPC-3 [6]: ++ (30<survival rate (%)≤60) | IC50 [7]: < 3000 nM

O=C1CCC(N2Cc3c(NC=C4C(=O)CC(c5c(Br)ccc6[nH]cc(C(F)(F)F)c56)CC4=O)cccc3C2=O)C(=O)N1 (stereo not shown) [Compound 16]
Inhibitory activity against proliferation (cell survival rate) SU-DHL6 [1]: + (60≤survival rate (%)<90) | Inhibitory activity against proliferation (cell survival rate) RPMI-8226 [2]: +++ (survival rate (%)≤30) | Inhibitory activity against proliferation (cell survival rate) K562 [3]: + (60≤survival rate (%)<90) | Inhibitory activity against proliferation (cell survival rate) A549 [4]: + (60≤survival rate (%)<90) | Inhibitory activity against proliferation (cell survival rate) MDA-MB-453 [5]: + (60≤survival rate (%)<90) | Inhibitory activity against proliferation (cell survival rate) BxPC-3 [6]: + (60≤survival rate (%)<90) | IC50 [7]: < 3000 nM

O=C1CCC(N2Cc3c(NC=C4C(=O)CC(c5ccc(F)cc5Br)CC4=O)cccc3C2=O)C(=O)N1 (stereo not shown) [Compound 17]
Inhibitory activity against proliferation (cell survival rate) SU-DHL6 [1]: + (60≤survival rate (%)<90) | Inhibitory activity against proliferation (cell survival rate) RPMI-8226 [2]: +++ (survival rate (%)≤30) | Inhibitory activity against proliferation (cell survival rate) K562 [3]: + (60≤survival rate (%)<90) | Inhibitory activity against proliferation (cell survival rate) A549 [4]: ++ (30<survival rate (%)≤60) | Inhibitory activity against proliferation (cell survival rate) MDA-MB-453 [5]: + (60≤survival rate (%)<90) | Inhibitory activity against proliferation (cell survival rate) BxPC-3 [6]: + (60≤survival rate (%)<90) | IC50 [7]: < 3000 nM

O=C1CCC(N2Cc3c(NC=C4C(=O)CC(c5ccccc5Br)CC4=O)cccc3C2=O)C(=O)N1 (stereo not shown) [Compound 18]
Inhibitory activity against proliferation (cell survival rate) SU-DHL6 [1]: ++ (30<survival rate (%)≤60) | Inhibitory activity against proliferation (cell survival rate) RPMI-8226 [2]: + (60≤survival rate (%)<90) | Inhibitory activity against proliferation (cell survival rate) K562 [3]: ++ (30<survival rate (%)≤60) | Inhibitory activity against proliferation (cell survival rate) A549 [4]: + (60≤survival rate (%)<90) | Inhibitory activity against proliferation (cell survival rate) MDA-MB-453 [5]: + (60≤survival rate (%)<90) | Inhibitory activity against proliferation (cell survival rate) BxPC-3 [6]: + (60≤survival rate (%)<90) | IC50 [7]: < 3000 nM

O=C1CCC(N2Cc3c(NC=C4C(=O)CC(c5ccc(F)cc5)CC4=O)cccc3C2=O)C(=O)N1 (stereo not shown) [Compound 19]
Inhibitory activity against proliferation (cell survival rate) SU-DHL6 [1]: + (60≤survival rate (%)<90) | Inhibitory activity against proliferation (cell survival rate) RPMI-8226 [2]: ++ (30<survival rate (%)≤60) | Inhibitory activity against proliferation (cell survival rate) K562 [3]: ++ (30<survival rate (%)≤60) | Inhibitory activity against proliferation (cell survival rate) A549 [4]: + (60≤survival rate (%)<90) | Inhibitory activity against proliferation (cell survival rate) MDA-MB-453 [5]: ++ (30<survival rate (%)≤60) | Inhibitory activity against proliferation (cell survival rate) BxPC-3 [6]: ++ (30<survival rate (%)≤60) | IC50 [7]: < 3000 nM
